Assay results: ChEMBL document CHEMBL3621203, “Discovery and Structure Enabled Synthesis of 2,6-Diaminopyrimidin-4-one IRAK4 Inhibitors” (ACS Med Chem Lett, 2015)
Converted amounts (≈) assume the structure as drawn. The source made the active and inactive calls. The rule behind the calls is not given here.

Legend:
[1] = Clearance in Wistar Han rat at 1 mg/kg, iv; assay type: ADME, organism-based; conditions: in vivo
[2] = Apparent permeability of the compound across pig LLC-PK1 cells; assay type: ADME, cell-based, Sus scrofa
[3] = molecular target: T1, Interleukin-1 receptor-associated kinase 4 (Homo sapiens, UniProt Q9NWZ3); assay: Inhibition of IRAK4 (unknown origin) using 5FAM-RKRQGSVRRRVHCCOOH as substrate after 30 mins by IMAP assay
T1 sequence (Q9NWZ3 whole entry): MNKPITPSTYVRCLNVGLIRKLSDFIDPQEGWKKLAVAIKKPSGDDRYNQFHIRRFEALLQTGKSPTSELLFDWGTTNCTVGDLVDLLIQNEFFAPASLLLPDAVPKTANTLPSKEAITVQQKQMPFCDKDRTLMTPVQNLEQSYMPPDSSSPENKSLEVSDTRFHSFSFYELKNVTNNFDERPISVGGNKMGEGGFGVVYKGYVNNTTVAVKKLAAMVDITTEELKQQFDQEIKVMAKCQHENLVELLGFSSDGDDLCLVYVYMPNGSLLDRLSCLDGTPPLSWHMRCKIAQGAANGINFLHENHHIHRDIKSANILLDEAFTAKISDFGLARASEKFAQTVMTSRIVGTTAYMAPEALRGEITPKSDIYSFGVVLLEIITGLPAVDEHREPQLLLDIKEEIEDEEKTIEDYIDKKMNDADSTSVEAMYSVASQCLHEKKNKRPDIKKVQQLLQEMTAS

[4] = Oral bioavailability in Wistar Han rat at 10 mg/kg; assay type: ADME, organism-based; conditions: in vivo
[5] = molecular target: T1, Interleukin-1 receptor-associated kinase 4; assay: Inhibition of IRAK4-mediated NFkappaB activation in human THP1-XBlue cells assessed as LPS-induced secreted embryonic alkaline phosphatase activity treated 1 hr before LPS challenge measured after 5 hrs by spectrophotometer analysis; assay type: cell-based, THP-1
[6] = Kinetic solubility of the compound at pH 7; assay type: physicochemical; conditions: buffer
[7] = molecular target: Receptor-type tyrosine-protein kinase FLT3 (Homo sapiens) (UniProt P36888); assay: Inhibition of FLT3 (unknown origin)
Receptor-type tyrosine-protein kinase FLT3 (Homo sapiens), sequence (P36888 whole entry): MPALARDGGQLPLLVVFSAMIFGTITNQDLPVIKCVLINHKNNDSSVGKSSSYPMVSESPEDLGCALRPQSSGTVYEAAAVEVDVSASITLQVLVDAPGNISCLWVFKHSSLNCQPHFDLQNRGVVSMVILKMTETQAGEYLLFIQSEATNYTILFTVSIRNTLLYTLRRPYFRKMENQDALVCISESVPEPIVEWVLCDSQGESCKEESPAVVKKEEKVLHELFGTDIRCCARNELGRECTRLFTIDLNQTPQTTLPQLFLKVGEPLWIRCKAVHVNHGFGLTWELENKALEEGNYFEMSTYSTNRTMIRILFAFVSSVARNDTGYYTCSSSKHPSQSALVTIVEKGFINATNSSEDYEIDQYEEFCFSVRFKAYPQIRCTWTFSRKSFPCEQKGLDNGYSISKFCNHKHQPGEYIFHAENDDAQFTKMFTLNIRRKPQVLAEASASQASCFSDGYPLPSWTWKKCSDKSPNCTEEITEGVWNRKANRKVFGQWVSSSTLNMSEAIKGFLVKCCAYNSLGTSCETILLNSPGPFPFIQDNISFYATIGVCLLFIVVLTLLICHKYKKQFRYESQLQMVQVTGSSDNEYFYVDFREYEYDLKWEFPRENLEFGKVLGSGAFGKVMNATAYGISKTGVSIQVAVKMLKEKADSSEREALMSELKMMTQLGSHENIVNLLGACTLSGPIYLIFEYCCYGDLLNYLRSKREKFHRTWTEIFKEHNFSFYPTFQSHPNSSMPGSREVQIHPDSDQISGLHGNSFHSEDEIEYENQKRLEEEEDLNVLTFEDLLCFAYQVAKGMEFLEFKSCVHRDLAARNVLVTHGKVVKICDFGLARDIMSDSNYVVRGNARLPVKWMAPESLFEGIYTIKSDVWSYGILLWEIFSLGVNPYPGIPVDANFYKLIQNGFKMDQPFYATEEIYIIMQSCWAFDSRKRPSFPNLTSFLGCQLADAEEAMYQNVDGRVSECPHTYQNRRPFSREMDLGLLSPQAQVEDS

SMILES | clearance [1] | Papp [2] | IC50 [3] | bioavailability [4] | IC50 [5] | solubility kinetic [6] | inhibition [7]
C[C@@H]1CC[C@@H](Nc2nc(N3CCOCC3)[nH]c(=O)c2-c2nc3ccccc3s2)CN1 | 51 mL/min/kg | 15 ×10⁻⁶ cm/s | 93 nM | 42% | 580 nM | 13 µM (≈ 5.55 µg/mL) | 
O=c1[nH]c(N2CCOCC2)nc(N[C@H]2CNC[C@H](O)C2)c1-c1nc2ccccc2s1 | 43 mL/min/kg | 9 ×10⁻⁶ cm/s |  | 2% | 333 nM | 8 µM (≈ 3.43 µg/mL) | 
O=c1[nH]c(N2CCc3ccccc3C2)nc(N[C@@H]2C[C@H](CO)[C@@H](O)[C@H]2O)c1-c1nc2ccccc2s1 | 88 mL/min/kg | 5 ×10⁻⁶ cm/s | 27 nM | 0% | 141 nM | 12 µM (≈ 6.07 µg/mL) | Active
OC[C@H]1C[C@@H](Nc2nc(NC3CC3)ncc2-c2nc3ccccc3s2)[C@H](O)[C@@H]1O |  |  | 470 nM |  |  |  | 
O=c1[nH]c(N2CCOCC2)nc(N[C@@H]2CCCNC2)c1-c1nc2ccccc2s1 | 45 mL/min/kg | 29 ×10⁻⁶ cm/s |  | 13% |  | 21 µM (≈ 8.66 µg/mL) | 
C[C@H]1CC[C@@H](Nc2nc(N3CCOCC3)[nH]c(=O)c2-c2nc3ccccc3s2)CN1 |  |  | 565 nM |  |  |  | 
O=c1[nH]c(N2CCCC2)nc(N[C@@H]2C[C@H](CO)[C@@H](O)[C@H]2O)c1-c1nc2ccccc2s1 |  | 12 ×10⁻⁶ cm/s |  |  | 78 nM | 26 µM (≈ 11.5 µg/mL) | 
O=c1[nH]c(N2CCOCC2)nc(N[C@@H]2C[C@H](CO)[C@@H](O)[C@H]2O)c1-c1nc2ccccc2s1 | 98 mL/min/kg | 7 ×10⁻⁶ cm/s |  | 0% |  | 63 µM (≈ 29 µg/mL) | 

Continued, values first:

clearance [1] | Papp [2] | IC50 [3] | bioavailability [4] | IC50 [5] | solubility kinetic [6] | inhibition [7] | SMILES
75 mL/min/kg | 18 ×10⁻⁶ cm/s |  | 4% | 292 nM | 23 µM (≈ 9.88 µg/mL) |  | O=c1[nH]c(N2CCC2)nc(N[C@@H]2C[C@H](CO)[C@@H](O)[C@H]2O)c1-c1nc2ccccc2s1
 |  | 972 nM |  |  |  |  | CCc1nc(N[C@@H]2C[C@H](CO)[C@@H](O)[C@H]2O)c(-c2nc3ccccc3s2)c(=O)[nH]1
 |  | 490 nM |  |  |  |  | CN(C)c1nc(N[C@@H]2C[C@H](CO)[C@@H](O)[C@H]2O)c(-c2nc3ccccc3s2)c(=O)[nH]1
 |  | 352 nM |  |  |  |  | CSc1nc(N[C@@H]2C[C@H](CO)[C@@H](O)[C@H]2O)c(-c2nc3ccccc3s2)c(=O)[nH]1
